# Measurements from US20240368135A1 (VERTEX PHARMACEUTICALS INCORPORATED, priority 2021, published 2024).
# Target: human NaV 1.8 (Homo sapiens, UniProt Q9Y5Y9)
# Experiment: E-VIPR assay detecting and measuring NaV inhibition properties
# Format: cell-based
# Details: HEK cells expressing truncated human NaV 1.8; no human serum; read-out: IC50 in the E-VIPR Assay
# How it was run: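 HEK cells expressing truncated, fully active human NaV1.8, with KIR2.1 BacMam co-transduction, were loaded with CC2-DMPE/DiSBAC6(3) voltage-sensing dyes for 20 min at room temperature. Compounds were tested in 11-point 3-fold dilutions (300 nM top final), optionally with 25% human serum, under electrical stimulation with FRET read-out.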
# human NaV 1.8, sequence (Q9Y5Y9 126-399 limits assumed): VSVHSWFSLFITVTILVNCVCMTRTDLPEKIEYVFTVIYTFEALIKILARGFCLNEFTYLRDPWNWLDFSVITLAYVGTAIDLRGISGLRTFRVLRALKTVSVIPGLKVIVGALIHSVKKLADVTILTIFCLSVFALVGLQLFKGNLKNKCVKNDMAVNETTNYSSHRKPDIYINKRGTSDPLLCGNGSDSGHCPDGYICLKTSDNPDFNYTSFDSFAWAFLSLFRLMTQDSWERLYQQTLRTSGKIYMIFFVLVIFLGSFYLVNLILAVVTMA
# human NaV 1.8, sequence (Q9Y5Y9 660-890 limits assumed): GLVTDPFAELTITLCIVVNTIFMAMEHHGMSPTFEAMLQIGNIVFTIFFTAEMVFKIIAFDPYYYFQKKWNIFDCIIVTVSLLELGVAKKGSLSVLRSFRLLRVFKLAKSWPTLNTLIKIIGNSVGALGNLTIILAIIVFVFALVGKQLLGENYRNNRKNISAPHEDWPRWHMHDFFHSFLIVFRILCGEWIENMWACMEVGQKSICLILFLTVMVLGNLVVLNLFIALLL
# human NaV 1.8, sequence (Q9Y5Y9 1148-1722 limits assumed): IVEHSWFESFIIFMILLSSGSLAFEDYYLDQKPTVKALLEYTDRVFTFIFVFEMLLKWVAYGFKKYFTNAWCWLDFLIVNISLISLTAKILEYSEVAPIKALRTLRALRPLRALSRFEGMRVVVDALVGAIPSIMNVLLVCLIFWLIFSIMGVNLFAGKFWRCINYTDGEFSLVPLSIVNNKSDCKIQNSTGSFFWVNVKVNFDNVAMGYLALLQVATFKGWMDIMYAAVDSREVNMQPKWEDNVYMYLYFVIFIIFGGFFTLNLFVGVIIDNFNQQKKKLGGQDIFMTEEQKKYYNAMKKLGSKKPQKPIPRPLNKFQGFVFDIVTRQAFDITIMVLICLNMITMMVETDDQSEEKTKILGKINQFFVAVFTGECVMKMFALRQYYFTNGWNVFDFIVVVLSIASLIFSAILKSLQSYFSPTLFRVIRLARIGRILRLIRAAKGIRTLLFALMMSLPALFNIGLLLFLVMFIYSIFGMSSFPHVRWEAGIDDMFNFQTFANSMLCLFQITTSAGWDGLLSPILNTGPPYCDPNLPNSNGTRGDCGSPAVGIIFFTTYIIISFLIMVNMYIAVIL
row,IC50,SMILES
1,100 to 1000 nM,"COc1c([C@H]2[C@H](C(=O)Nc3ccc(-c4cnco4)nc3)O[C@@](C)(C(F)(F)F)[C@H]2C)ccc(F)c1F [Compound 394, (2R,3S,4S,5R)-3-(3,4-difluoro-2-methoxyphenyl)-4,5-dimethyl-N-(6-(oxazol-5-yl)pyridin-3-yl)-5-(trifluoromethyl)-tetrahydrofuran-2-carboxamide]"
2,10 to 100 nM,"COc1c([C@H]2[C@H](C(=O)Nc3ccc(-c4ncco4)nc3)O[C@@](C)(C(F)(F)F)[C@H]2C)ccc(F)c1F [Compound 399, (2R,3S,4S,5R)-3-(3,4-difluoro-2-methoxyphenyl)-4,5-dimethyl-N-(6-(oxazol-2-yl)pyridin-3-yl)-5-(trifluoromethyl)-tetrahydrofuran-2-carboxamide]"
3,10 to 100 nM,"COc1c([C@H]2[C@H](C(=O)Nc3ccc(C#CCO)nc3)O[C@@](C)(C(F)(F)F)[C@H]2C)ccc(F)c1F [Compound 403, (2R,3S,4S,5R)-3-(3,4-difluoro-2-methoxyphenyl)-N-(6-(3-hydroxyprop-1-yn-1-yl)pyridin-3-yl)-4,5-dimethyl-5-(trifluoromethyl)-tetrahydrofuran-2-carboxamide]"
4,100 to 1000 nM,"COc1c([C@H]2[C@H](C(=O)Nc3ncc(O)cn3)O[C@@](C)(C(F)(F)F)[C@H]2C)ccc(F)c1F [Compound 444, (2R,3S,4S,5R)-3-(3,4-difluoro-2-methoxy-phenyl)-N-(5-hydroxypyrimidin-2-yl)-4,5-dimethyl-5-(trifluoromethyl)tetrahydrofuran-2-carboxamide]"
5,≥ 1000 nM,"COc1c([C@H]2[C@H](C(=O)Nc3cnc(CCO)n3C)O[C@@](C)(C(F)(F)F)[C@H]2C)ccc(F)c1F [Compound 445, (2R,3S,4S,5R)-3-(3,4-difluoro-2-methoxyphenyl)-N-(2-(2-hydroxyethyl)-1-methyl-1H-imidazol-5-yl)-4,5-dimethyl-5-(trifluoromethyl)tetrahydrofuran-2-carboxamide]"
6,10 to 100 nM,"COc1c([C@H]2[C@H](C(=O)Nc3cnc(C(F)CO)nc3)O[C@@](C)(C(F)(F)F)[C@H]2C)ccc(F)c1F (stereo partly drawn) [Compound 446, (2R,3S,4S,5R)-3-(3,4-difluoro-2-methoxy-phenyl)-N-[2-(1-fluoro-2-hydroxy-ethyl)pyrimidin-5-yl]-4,5-dimethyl-5-(trifluoromethyl)tetrahydrofuran-2-carboxamide]"
7,10 to 100 nM,"COc1c([C@H]2[C@H](C(=O)Nc3cnc(C)n3C)O[C@@](C)(C(F)(F)F)[C@H]2C)ccc(F)c1F [Compound 447, (2R,3S,4S,5R)-3-(3,4-difluoro-2-methoxy-phenyl)-N-(2,3-dimethylimidazol-4-yl)-4,5-dimethyl-5-(trifluoromethyl)tetrahydrofuran-2-carboxamide]"

# The remaining lines, values behind:
row,SMILES,IC50
1,"COc1c([C@H]2[C@H](C(=O)Nc3ccc(CC4CCOC4)nc3)O[C@@](C)(C(F)(F)F)[C@H]2C)ccc(F)c1F (stereo partly drawn) [Compound 392, (2R,3S,4S,5R)-3-(3,4-difluoro-2-methoxyphenyl)-4,5-dimethyl-N-(6-((tetrahydrofuran-3-yl)methyl)pyridin-3-yl)-5-(trifluoromethyl)-tetrahydrofuran-2-carboxamide]",100 to 1000 nM
2,"COc1c([C@H]2[C@H](C(=O)Nc3ccc(-c4nc(C)no4)nc3)O[C@@](C)(C(F)(F)F)[C@H]2C)ccc(F)c1F [Compound 393, (2R,3S,4S,5R)-3-(3,4-difluoro-2-methoxyphenyl)-4,5-dimethyl-N-(6-(3-methyl-1,2,4-oxadiazol-5-yl)pyridin-3-yl)-5-(trifluoromethyl)-tetrahydrofuran-2-carboxamide]",100 to 1000 nM
3,"COc1c([C@H]2[C@H](C(=O)Nc3ccc(-n4ccc(C)n4)nc3)O[C@@](C)(C(F)(F)F)[C@H]2C)ccc(F)c1F [Compound 395, (2R,3S,4S,5R)-3-(3,4-difluoro-2-methoxyphenyl)-4,5-dimethyl-N-(6-(3-methyl-1H-pyrazol-1-yl)pyridin-3-yl)-5-(trifluoromethyl)-tetrahydrofuran-2-carboxamide]",10 to 100 nM
4,"COc1c([C@H]2[C@H](C(=O)Nc3ccc(-c4ccccn4)nc3)O[C@@](C)(C(F)(F)F)[C@H]2C)ccc(F)c1F [Compound 396, (2R,3S,4S,5R)-N-([2,2′-bipyridin]-5-yl)-3-(3,4-difluoro-2-methoxyphenyl)-4,5-dimethyl-5-(trifluoromethyl)-tetrahydrofuran-2-carboxamide]",≥ 1000 nM
5,"COc1c([C@H]2[C@H](C(=O)Nc3ccc(-c4nncn4C)nc3)O[C@@](C)(C(F)(F)F)[C@H]2C)ccc(F)c1F [Compound 397, (2R,3S,4S,5R)-3-(3,4-difluoro-2-methoxyphenyl)-4,5-dimethyl-N-(6-(4-methyl-4H-1,2,4-triazol-3-yl)pyridin-3-yl)-5-(trifluoromethyl)-tetrahydrofuran-2-carboxamide]",100 to 1000 nM
6,"COc1c([C@H]2[C@H](C(=O)Nc3ccc(-c4nnc(C)o4)nc3)O[C@@](C)(C(F)(F)F)[C@H]2C)ccc(F)c1F [Compound 398, (2R,3S,4S,5R)-3-(3,4-difluoro-2-methoxyphenyl)-4,5-dimethyl-N-(6-(5-methyl-1,3,4-oxadiazol-2-yl)pyridin-3-yl)-5-(trifluoromethyl)-tetrahydrofuran-2-carboxamide]",10 to 100 nM
7,"COc1c([C@H]2[C@H](C(=O)Nc3ccc(-c4ccn(C)n4)nc3)O[C@@](C)(C(F)(F)F)[C@H]2C)ccc(F)c1F [Compound 400, (2R,3S,4S,5R)-3-(3,4-difluoro-2-methoxyphenyl)-4,5-dimethyl-N-(6-(1-methyl-1H-pyrazol-3-yl)pyridin-3-yl)-5-(trifluoromethyl)-tetrahydrofuran-2-carboxamide]",100 to 1000 nM
8,"COc1c([C@H]2[C@H](C(=O)Nc3ccc(-n4ccnc4)nc3)O[C@@](C)(C(F)(F)F)[C@H]2C)ccc(F)c1F [Compound 401, (2R,3S,4S,5R)-N-(6-(1H-imidazol-1-yl)pyridin-3-yl)-3-(3,4-difluoro-2-methoxyphenyl)-4,5-dimethyl-5-(trifluoromethyl)-tetrahydrofuran-2-carboxamide]",10 to 100 nM
9,"COc1c([C@H]2[C@H](C(=O)Nc3ccc(-n4cncn4)nc3)O[C@@](C)(C(F)(F)F)[C@H]2C)ccc(F)c1F [Compound 402, (2R,3S,4S,5R)-N-(6-(1H-1,2,4-triazol-1-yl)pyridin-3-yl)-3-(3,4-difluoro-2-methoxyphenyl)-4,5-dimethyl-5-(trifluoromethyl)-tetrahydrofuran-2-carboxamide]",10 to 100 nM
10,"COc1c([C@H]2[C@H](C(=O)Nc3ccc(CC4CCOCC4)nc3)O[C@@](C)(C(F)(F)F)[C@H]2C)ccc(F)c1F [Compound 404, (2R,3S,4S,5R)-3-(3,4-difluoro-2-methoxyphenyl)-4,5-dimethyl-N-(6-((tetrahydro-2H-pyran-4-yl)methyl)pyridin-3-yl)-5-(trifluoromethyl)-tetrahydrofuran-2-carboxamide]",100 to 1000 nM
11,"COc1c([C@H]2[C@H](C(=O)Nc3ccnc(CC(C)(C)O)c3)O[C@@](C)(C(F)(F)F)[C@H]2C)ccc(F)c1F [Compound 405, (2R,3S,4S,5R)-3-(3,4-difluoro-2-methoxy-phenyl)-N-[2-(2-hydroxy-2-methyl-propyl)-4-pyridyl]-4,5-dimethyl-5-(trifluoromethyl)tetrahydrofuran-2-carboxamide]",10 to 100 nM
12,"COCC(C)(C)NCc1cc(NC(=O)[C@@H]2O[C@@](C)(C(F)(F)F)[C@@H](C)[C@H]2c2ccc(F)c(F)c2OC)ccn1 [Compound 410, (2R,3S,4S,5R)-3-(3,4-difluoro-2-methoxyphenyl)-N-(2-(((1-methoxy-2-methylpropan-2-yl)amino)methyl)-pyridin-4-yl)-4,5-dimethyl-5-(trifluoromethyl)-tetrahydrofuran-2-carboxamide]",10 to 100 nM
13,"COc1c([C@H]2[C@H](C(=O)Nc3ccnc(N4CCNCC4=O)c3)O[C@@](C)(C(F)(F)F)[C@H]2C)ccc(F)c1F [Compound 411, (2R,3S,4S,5R)-3-(3,4-difluoro-2-methoxyphenyl)-4,5-dimethyl-N-(2-(2-oxopiperazin-1-yl)pyridin-4-yl)-5-(trifluoromethyl)-tetrahydrofuran-2-carboxamide]",< 10 nM
14,"COc1c([C@H]2[C@H](C(=O)Nc3ccn4c(=O)n(CCO)nc4c3)O[C@@](C)(C(F)(F)F)[C@H]2C)ccc(F)c1F [Compound 430, (2R,3S,4S,5R)-3-(3,4-difluoro-2-methoxy-phenyl)-N-[2-(2-hydroxyethyl)-3-oxo-[1,2,4]triazolo[4,3-a]pyridin-7-yl]-4,5-dimethyl-5-(trifluoromethyl)tetrahydrofuran-2-carboxamide]",10 to 100 nM
15,"COc1c([C@H]2[C@H](C(=O)Nc3ccnc(N4C(=O)CN(C)C[C@H]4C)c3)O[C@@](C)(C(F)(F)F)[C@H]2C)ccc(F)c1F [Compound 465, (2R,3S,4S,5R)-3-(3,4-difluoro-2-methoxyphenyl)-N-(2-((R)-2,4-dimethyl-6-oxopiperazin-1-yl)pyridin-4-yl)-4,5-dimethyl-5-(trifluoromethyl)tetrahydrofuran-2-carboxamide]",< 10 nM
16,"COc1c([C@H]2[C@H](C(=O)Nc3ccnc(N4CCN(C)CCC4=O)c3)O[C@@](C)(C(F)(F)F)[C@H]2C)ccc(F)c1F [Compound 466, (2R,3S,4S,5R)-3-(3,4-difluoro-2-methoxyphenyl)-4,5-dimethyl-N-(2-(4-methyl-7-oxo-1,4-diazepan-1-yl)pyridin-4-yl)-5-(trifluoromethyl)tetrahydrofuran-2-carboxamide]",10 to 100 nM
17,"COc1c([C@H]2[C@H](C(=O)Nc3ccnc(N4CCCN(C)CC4=O)c3)O[C@@](C)(C(F)(F)F)[C@H]2C)ccc(F)c1F [Compound 467, (2R,3S,4S,5R)-3-(3,4-difluoro-2-methoxyphenyl)-4,5-dimethyl-N-(2-(4-methyl-2-oxo-1,4-diazepan-1-yl)pyridin-4-yl)-5-(trifluoromethyl)tetrahydrofuran-2-carboxamide]",10 to 100 nM
